Structures are written as SMILES.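 Compound exposure: 48 hours, 5 concentrations, 96-well plates. At the GI50, growth is halved.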 Active and inactive are the calls of the source. Rule as the data show it: active = GI50 up to about 1.1 µM and inactive = higher. Bounds are passed on as bounds.

Eleven compounds from ChEMBL document CHEMBL1201862, “PubChem BioAssay data set” (2004) can be followed below.

Test systems include ACHN; SK-MEL-5; U-251; SNB-75; A549; NCI-H460; M14; CCRF-CEM; HT-29; HCC 2998; MDA-N; HCT-116; NCI-H226; SK-MEL-28; NCI-H23; HL-60; SN12C; NCI/ADR-RES.
Experiment in all cases: inhibition of tumour cell growth, NCI panel, 48 h

With `O=C(Nc1cccc(Cl)c1)Nn1cnnc1`, the GI50 in the assay on ACHN, with SK-MEL-5, in the assay on U-251, in the assay on SNB-75, in the assay with A549 and in the assay on NCI-H460 was > 100 µM (inactive) in each case. The GI50 in the assay with M14, in the assay on CCRF-CEM, with HT-29, in the assay with HCC 2998, with MDA-N and with HCT-116 was > 100 µM (inactive) each time. Also, the GI50 in the assay on NCI-H226 was > 100 µM (inactive); with SK-MEL-28, > 100 µM (inactive); in the assay with NCI-H23, > 100 µM (inactive); in the assay with HL-60, 66.5 µM (inactive); in the assay on SN12C, > 100 µM (inactive); with NCI/ADR-RES, > 100 µM (inactive).

`CC1C=C(NCC2(CO)CCC2)N=C(N)N1` (stereo not drawn): the GI50 in the assay with ACHN, in the assay on SK-MEL-5, with U-251, in the assay on SNB-75, with A549 and in the assay on NCI-H460 was > 100 µM (inactive) each time. The GI50 in the assay on M14, with CCRF-CEM, in the assay with HT-29, with HCC 2998, in the assay on MDA-N and in the assay with HCT-116 was > 100 µM (inactive) throughout. For the same compound, the GI50 with NCI-H226, in the assay on SK-MEL-28, with NCI-H23, in the assay on HL-60, in the assay with SN12C and in the assay on NCI/ADR-RES was > 100 µM (inactive) in each case.

As to `CC(C)/C(Cl)=N\OC(=O)Nc1ccc(F)c([N+](=O)[O-])c1`, the GI50 was 1.79 µM (inactive) with ACHN; 8.43 µM (inactive) in the assay with SK-MEL-5; 16.4 µM (inactive) in the assay on U-251; 14.2 µM (inactive) with SNB-75; 23.9 µM (inactive) with A549; 2.41 µM (inactive) in the assay on NCI-H460. Further, the GI50 with M14 was 3.88 µM (inactive); in the assay with CCRF-CEM it was 0.902 µM (active); with HT-29, 15.9 µM (inactive); in the assay on HCC 2998, 10.5 µM (inactive); in the assay on MDA-N, 14 µM (inactive); with HCT-116, 3.08 µM (inactive). Further, the GI50 is 23.7 µM (inactive) in the assay with NCI-H226; 12.6 µM (inactive) in the assay on SK-MEL-28; 17.1 µM (inactive) in the assay with NCI-H23; 1.01 µM (active) with HL-60; 5.83 µM (inactive) in the assay on SN12C; 18.4 µM (inactive) in the assay on NCI/ADR-RES.

Turning to `O=C1c2ccccc2C(=O)c2c(NCC3CO3)cccc21` (stereo not drawn), the GI50 with ACHN was 8.67 µM (inactive); in the assay on SK-MEL-5, 22.6 µM (inactive); in the assay on U-251 it was 14 µM (inactive); in the assay with SNB-75, > 100 µM (inactive); with A549 it was 57 µM (inactive); in the assay with NCI-H460, > 64.7 µM (inactive). For the same compound, the GI50 in the assay on M14 was 11.3 µM (inactive); with CCRF-CEM, 1.43 µM (inactive); with HT-29, 18.2 µM (inactive); in the assay with HCC 2998 it was > 100 µM (inactive); with MDA-N, 8.99 µM (inactive); with HCT-116 it was 7.01 µM (inactive). The GI50 in the assay on NCI-H226 is > 100 µM (inactive); in the assay with SK-MEL-28, > 41.7 µM (inactive); with NCI-H23, 9.44 µM (inactive); in the assay with HL-60, 5.27 µM (inactive); with SN12C, 7.66 µM (inactive); in the assay with NCI/ADR-RES, 9.91 µM (inactive).

As to `COC(=O)CC1C(COC(C)=O)OC(n2cc(C)c(=O)[nH]c2=O)C1OC(C)=O` (stereo not drawn), the GI50 in the assay with ACHN, with SK-MEL-5, in the assay on U-251, in the assay on SNB-75, in the assay on A549 and in the assay with NCI-H460 was > 100 µM (inactive) throughout. Further, the GI50 in the assay with M14, in the assay with CCRF-CEM, in the assay with HT-29, in the assay on HCC 2998, in the assay on MDA-N and in the assay on HCT-116 was > 100 µM (inactive) each time. For the same compound, the GI50 in the assay with NCI-H226, with SK-MEL-28, in the assay on NCI-H23, with HL-60, in the assay on SN12C and with NCI/ADR-RES was > 100 µM (inactive) throughout.

On to `CC(=O)OC[C@@]1(C)[C@@H]2[C@@H]3[C@@]4(CO[C@]3(C)C(=O)[C@@]3(O)C[C@H](C)[C@H](OC(C)=O)[C@@H]3[C@H]4OC(C)=O)[C@H](OC(=O)c3ccccc3)C[C@@H]21`, for which the GI50 in the assay on ACHN, with SK-MEL-5, in the assay on U-251, in the assay on SNB-75, with A549 and with NCI-H460 was > 100 µM (inactive) each time. The GI50 with M14, with CCRF-CEM, with HT-29, in the assay with HCC 2998, in the assay on MDA-N and with HCT-116 was > 100 µM (inactive) in each case. Also, the GI50 with NCI-H226, with SK-MEL-28, with NCI-H23, in the assay on HL-60, in the assay on SN12C and in the assay with NCI/ADR-RES was > 100 µM (inactive) each time.

Turning to `CC1=C(C(=O)OCCc2ccc([N+](=O)[O-])cc2)C(c2ccccc2C(F)(F)F)C(C(=O)OC(C)C)=C(C)N1` (stereo not drawn), the GI50 in the assay on ACHN was 3.06 µM (inactive); with SK-MEL-5, 1.64 µM (inactive); in the assay on U-251, 3.52 µM (inactive); in the assay on SNB-75 it was 4.04 µM (inactive); in the assay on A549 it was 2.81 µM (inactive); in the assay with NCI-H460, 2.47 µM (inactive). The GI50 is 2.41 µM (inactive) in the assay with M14; 2.84 µM (inactive) with CCRF-CEM; 10.1 µM (inactive) in the assay with HT-29; 4.92 µM (inactive) in the assay on HCC 2998; 4.33 µM (inactive) in the assay with MDA-N; 2.92 µM (inactive) in the assay on HCT-116. Besides, the GI50 was 3.15 µM (inactive) in the assay with NCI-H226; 4.89 µM (inactive) with SK-MEL-28; 3.7 µM (inactive) in the assay with NCI-H23; 1.79 µM (inactive) with HL-60; 3.12 µM (inactive) in the assay on SN12C; 2.75 µM (inactive) with NCI/ADR-RES.

In the case of `COc1ccc(/C=C/c2cnnc3ccccc23)cc1OC`, the GI50 with ACHN was > 10 µM (inactive); with SK-MEL-5, > 10 µM (inactive); in the assay with U-251 it was > 10 µM (inactive); in the assay with SNB-75, 5.46 µM (inactive); with A549, > 10 µM (inactive); in the assay on NCI-H460, > 10 µM (inactive). Moreover, the GI50 in the assay on M14, with CCRF-CEM, with HT-29, in the assay with HCC 2998, with MDA-N and with HCT-116 was > 10 µM (inactive) in each case. Besides, the GI50 with NCI-H226, in the assay with SK-MEL-28, with NCI-H23, in the assay on HL-60, with SN12C and in the assay with NCI/ADR-RES was > 10 µM (inactive) each time.

Consider `CCN(CC)C(=C(C(Cl)=C(Cl)Cl)[N+](=O)[O-])N(CC)CC`, for which the GI50 with ACHN is 72.6 µM (inactive); in the assay with SK-MEL-5 it was > 100 µM (inactive); with U-251, > 100 µM (inactive); with SNB-75, 22.3 µM (inactive); in the assay on A549, > 100 µM (inactive); in the assay on NCI-H460 it was 55 µM (inactive). Moreover, the GI50 is 92 µM (inactive) in the assay with M14; 30.6 µM (inactive) in the assay with CCRF-CEM; > 100 µM (inactive) with HT-29; > 100 µM (inactive) in the assay on HCC 2998; 47.1 µM (inactive) in the assay with MDA-N; 87.7 µM (inactive) in the assay with HCT-116. Further, the GI50 in the assay on NCI-H226 is > 100 µM (inactive); in the assay with SK-MEL-28, 49.1 µM (inactive); in the assay on NCI-H23, 24.1 µM (inactive); with HL-60 it was 29.6 µM (inactive); in the assay on SN12C, 93.5 µM (inactive); in the assay on NCI/ADR-RES it was 54 µM (inactive).

`COc1ccc(SCc2cc(OC)ccc2OC)cc1`: the GI50 in the assay on ACHN was 97.3 µM (inactive); in the assay on SK-MEL-5, 16.1 µM (inactive); in the assay on U-251, 11.2 µM (inactive); with SNB-75, 11.1 µM (inactive); in the assay with A549, 22.4 µM (inactive); in the assay with NCI-H460, 37.4 µM (inactive). The GI50 was 57.5 µM (inactive) in the assay on M14; 17.5 µM (inactive) in the assay with CCRF-CEM; 13.7 µM (inactive) in the assay on HT-29; 9.77 µM (inactive) in the assay on HCC 2998; 3.33 µM (inactive) in the assay with MDA-N; 33.8 µM (inactive) in the assay with HCT-116. Moreover, the GI50 is 25.3 µM (inactive) with NCI-H226; 64.3 µM (inactive) with SK-MEL-28; 37.9 µM (inactive) in the assay with NCI-H23; 6.01 µM (inactive) in the assay on HL-60; 55.3 µM (inactive) in the assay with SN12C; 13.2 µM (inactive) with NCI/ADR-RES.

Consider `O=C(/C=C/c1ccsc1)c1ccsc1`, for which the GI50 was 20.4 µM (inactive) in the assay on ACHN; 19.2 µM (inactive) in the assay with SK-MEL-5; 18.1 µM (inactive) in the assay with U-251; 37 µM (inactive) in the assay with SNB-75; 38.2 µM (inactive) with A549; 23.7 µM (inactive) in the assay with NCI-H460. For the same compound, the GI50 in the assay with M14 is 33.7 µM (inactive); with CCRF-CEM it was 19.1 µM (inactive); in the assay with HT-29 it was 26.8 µM (inactive); in the assay on HCC 2998, 19.5 µM (inactive); with MDA-N, 23.2 µM (inactive); with HCT-116, 16.2 µM (inactive). Besides, the GI50 with NCI-H226 was 17 µM (inactive); with SK-MEL-28, 37.1 µM (inactive); in the assay with NCI-H23, 21.6 µM (inactive); in the assay on HL-60, 17 µM (inactive); in the assay with SN12C, 19.5 µM (inactive); in the assay with NCI/ADR-RES it was > 100 µM (inactive).
